Read-outs that look alike come from different tables or passages of the source.

One data set concerns hCoV-229E-GFP. The class given is cell-based, Human coronavirus 229E.
Data set [1] can be described thus: Determination of cytotoxicity by MTT colorimetric assay. The class given is cell-based. The note with it: African green monkey, uninfected Vero-E6 cells, 50 to 0.78 µM. As to the method: Determination of cytotoxicity by MTT colorimetric assay: To evaluate the cytotoxicity profile of the selected compounds MTT assays were performed in Vero-E6 cells. Uninfected cells were incubated with a range of compound concentrations (from 50 to 0.78 µM) for forty-eight hours, time at which the MTT substrate [3-(4,5-dimethylthiazol-2-yl)-2,5-diphenyltetrazolium bromide] was added and the formation of formazan precipitates was evaluated two hours later, using a colorimetric readout. Vehicle-treated cells were used as reference (100%).
(In general: Formazan colour is commonly taken as a measure of viable cells.)

For data set [2], the system named is SARS-CoV-2. Kind of data set: Antiviral potency against SARS-CoV-2 in Vero-E6 cells (protection from virus-induced cytopathic effect / intracellular viral antigen accumulation). The class given is cell-based. (Cytopathic effects are the visible damage that an infection or toxin causes in cultured cells.)
Data set [3] has as its system SARS-CoV-2. The data set is described as follows: Intracellular viral RNA quantitation by RT-qPCR. Type of data set: cell-based. The settings on record: 15µM; for intracellular viral RNA levels (in words): as compared with the uninfected controls; for % RNA relative to DMSO: Vero-E6, MOI 0.001, 48 h, SARS-CoV-2 E gene normalised to 18S, DMSO set as 100%. Background: Real-time PCR tracks product formation cycle by cycle.

Setting [4] is: Severe acute respiratory syndrome coronavirus 2, Vero C1008, SARS-CoV-2 strain NL/2020, Vero-E6 cells, mean, read-out: EC50 mean.
[5] abbreviates: Severe acute respiratory syndrome coronavirus 2, Vero C1008, SARS-CoV-2 strain NL/2020, Vero-E6 cells, mean, read-out: EC90 mean.

A word on the CC50: it is the concentration giving 50% cytotoxicity. Lower therefore signals greater toxicity to the cells. In general, EC50 refers to the concentration at which the effect is half-maximal. By EC90 is commonly meant the concentration needed for an effect of 90%. As for `CC(C)(C)OC(=O)NCCCC[C@H]1C(=O)NCC([C@H](Cc2cn(C(=O)OC(C)(C)C)c3ccccc23)NC(=O)OC(C)(C)C)N1Cc1ccccc1` (stereo in doubt) [Example 4, (5R,3S)-4-benzyl-5-((S)-1-(tert-butoxycarbonyl)amino-2-(1-(tert-butoxycarbonyl)(indol-3-yl))-ethyl)-3-(4-(tert-butoxycarbonyl)amino-butyl)-2-oxopiperazine], in the data set with hCoV-229E-GFP, the “% Reduction of hCoV-229E-GFP propagation” value is 97%. Also, the CC50 at 48 h in data set [1] is greater than 50 µM. For the same molecule, the 50% effective concentration (EC50) with SARS-CoV-2 [2] (Severe acute respiratory syndrome coronavirus 2, Vero C1008, read-out: EC50 mean) was determined as 1.6 µM. The EC90 in the data set on SARS-CoV-2 [2] (Severe acute respiratory syndrome coronavirus 2, Vero C1008, read-out: EC90 mean) came to 14.7 µM.

As to `CC(C)(C)OC(=O)NCCCC[C@@H]1N[C@H]([C@H](Cc2cn(C(=O)OC(C)(C)C)c3ccccc23)NC(=O)OC(C)(C)C)CNC1=O` [Example 2, (5S,3S)-5-((S)-1-(tert-butoxycarbonyl)amino-2-(1-(tert-butoxycarbonyl)(indol-3-yl))-ethyl)-3-(4-(tert-butoxycarbonyl)amino-butyl)-2-oxopiperazine], the cytotoxic concentration (CC50) at 48 h in data set [1] is greater than 50 µM. Moreover, the EC50 in the data set on SARS-CoV-2 [2] (setting [4]) was found to be 15.3 µM. For the same molecule, the EC90 with SARS-CoV-2 [2] (setting [5]) is 46.7 µM.

For the molecule `CC(C)(C)OC(=O)NCCCC[C@H]1C(=O)NC[C@H]([C@H](Cc2cn(C(=O)OC(C)(C)C)c3ccccc23)NC(=O)OC(C)(C)C)N1Cc1ccccc1` [Example 3, (5R,3S)-4-benzyl-5-((S)-1-(tert-butoxycarbonyl)amino-2-(1-(tert-butoxycarbonyl)(indol-3-yl))-ethyl)-3-(4-(tert-butoxycarbonyl)amino-butyl)-2-oxopiperazine], the “% Reduction of hCoV-229E-GFP propagation” value in the data set on hCoV-229E-GFP was determined as 94%. The molecule also showed a 50% cytotoxic concentration (CC50) at 48 h in data set [1] greater than 50 µM. In the data set with SARS-CoV-2 [3], the “intracellular viral RNA levels (in words)” value is on record as “virtually undetectable levels” and the “% RNA relative to DMSO” value was 10^-2%. The EC50 in the data set with SARS-CoV-2 [2] (setting [4]) was found to be 6.33 µM. In addition, the EC90 in the data set on SARS-CoV-2 [2] (setting [5]) stood at 14.3 µM.

As to `CC(C)(C)OC(=O)CN1[C@@H]([C@H](Cc2cn(C(=O)OC(C)(C)C)c3ccccc23)NC(=O)OC(C)(C)C)CNC(=O)[C@@H]1CCCCNC(=O)OC(C)(C)C` [Example 5, (5R,3S)-5-((S)-1-(tert-butoxycarbonyl)amino-2-(1-(tert-butoxycarbonyl)-(indol-3-yl))-ethyl)-4(tert-butoxycarbonyl)methyl-3-(4-(tert-butoxycarbonyl)aminobutyl)-2-oxopiperazine], in the data set with hCoV-229E-GFP, the “% Reduction of hCoV-229E-GFP propagation” value is listed as 94%. In data set [1], this molecule returned a half-maximal cytotoxic concentration (CC50) at 48 h greater than 50 µM. The half-maximal effective concentration (EC50) in the data set on SARS-CoV-2 [2] (setting [4]) is 1.93 µM. Further, the EC90 in the data set with SARS-CoV-2 [2] (setting [5]) amounted to 7.33 µM.

Regarding `CC(C)(C)OC(=O)CN1[C@@H](CCCCNC(=O)OC(C)(C)C)C(=O)NC[C@H]1[C@H](Cc1cn(C(=O)OC(C)(C)C)c2ccccc12)NC(=O)OC(C)(C)C` [Example 6, (5S,3S)-5-((S)-1-(tert-butoxycarbonyl)amino-2-(1-(tert-butoxycarbonyl)-(indol-3-yl))-ethyl)-4(tert-butoxycarbonyl)methyl-3-(4-(tert-butoxycarbonyl)aminobutyl)-2-oxopiperazine], the “% Reduction of hCoV-229E-GFP propagation” value in the data set on hCoV-229E-GFP worked out at 98%. The cytotoxic concentration (CC50) at 48 h in data set [1] was greater than 50 µM. In the data set with SARS-CoV-2 [3], the “intracellular viral RNA levels (in words)” value is “virtually undetectable levels” and the “% RNA relative to DMSO” value is 10^-4%. In the data set with SARS-CoV-2 [2] (setting [4]), the half-maximal effective concentration (EC50) turned out to be 3.17 µM. The EC90 in the data set on SARS-CoV-2 [2] (setting [5]) was 9.67 µM.

The record behind these values is patent EP4000623A1, “5-(2-(1H-INDOL-3-YL))-ETHYL)- PIPERAZIN-2-ONE DERIVATIVES FOR USE IN THE TREATMENT OF VIRAL INFECTIONS BY VIRUSES OF THE FAMILY CORONAVIRIDAE” (Consejo Superior De Investigaciones Científicas, priority 2020, dated 2022).
